Active and inactive are the calls of the source.
Legend:
[1] = blockers of HIV-1 envelope-mediated cell-cell fusion – cherry-pick, dose response (AID 652057); format: functional, cell-based
[2] = Luminescence Cell-Based Dose Confirmation HTS to Identify Inhibitors of Platelet Dense Granule Release. [Related pubchem assays: 1663 (Primary HTS), 1678 (Summary of Project)]; format: functional
[3] = blockers of HIV-1 ZM109 envelope-driven cell-cell fusion – HeLa effector, CEM target cells, luciferase, cherry-pick, dose response (AID 652058); format: functional, cell-based;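 further: luciferase signal from HIV-1 Env mediated cell-cell fusion of effector and target cells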
[4] = viability loss in CEM21 cells – cell-based, CellTiter-Glo luminescence, cherry-picked, cytotoxicity control for viral fusion inhibitor project, dose response (AID 652042); format: functional;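 further: potency for signal decrease meaning cytotoxicity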
[5] = off-target signal loss in HeLa-CEM21 co-culture – HeLa F-luc CTL cells, cherry-picked, counter-screen for HIV-1 Env fusion inhibitor project, dose response (AID 652040); format: functional, cell-based;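 further: potency for signal decrease marking cytotoxic or nonspecific inhibition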
[6] = DRD fibroblast viability loss – cell-based, non-viral oncogenic, luminescence, dose response (AID 1934); format: functional; settings: Homo sapiens
[7] = reduction of Shn3 3'UTR-driven luciferase in osteoblasts – cell-based, Clone20 osteoblasts, firefly luciferase, cherry-picked, dose response (AID 624132); format: functional;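 further: firefly luciferase luminescence from reporter carrying the Shn3 3'UTR in osteoblasts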
[8] = A Cell Based Secondary Assay To Explore Cytotoxicity of Compounds that Sensitize Mycobacterium Tuberculosis to Beta-Lactam Antibiotics.; format: functional
[9] = HEK-293T viability loss, compound-treated – cell-based, uHTS hits, cytotoxicity control for B/T-cell NF-kB inhibitor project, dose response (AID 489019); format: functional;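 further: IC50 reflects cytotoxicity as loss of cell viability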
[10] = tested on: BJ; assay: BJ-TERT-LT-ST fibroblast viability loss – cell-based, RAS-independent, luminescence, dose response (AID 1935); format: functional; settings: Homo sapiens;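 further: BJ fibroblasts immortalized with TERT plus LT and ST oncogenes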
[11] = loss of viability in HepG2 cells – cell-based, CellTiter-Glo, cherry-picked, cytotoxicity control for Shn3 inhibitor project, dose response (AID 624134); format: functional
[12] = target: Luciferin 4-monooxygenase (Photinus pyralis, UniProt P08659); assay: inhibition of purified Photinus pyralis luciferase – biochemical, luminescence, dose response (AID 1891)
Luciferin 4-monooxygenase, sequence (P08659 whole entry): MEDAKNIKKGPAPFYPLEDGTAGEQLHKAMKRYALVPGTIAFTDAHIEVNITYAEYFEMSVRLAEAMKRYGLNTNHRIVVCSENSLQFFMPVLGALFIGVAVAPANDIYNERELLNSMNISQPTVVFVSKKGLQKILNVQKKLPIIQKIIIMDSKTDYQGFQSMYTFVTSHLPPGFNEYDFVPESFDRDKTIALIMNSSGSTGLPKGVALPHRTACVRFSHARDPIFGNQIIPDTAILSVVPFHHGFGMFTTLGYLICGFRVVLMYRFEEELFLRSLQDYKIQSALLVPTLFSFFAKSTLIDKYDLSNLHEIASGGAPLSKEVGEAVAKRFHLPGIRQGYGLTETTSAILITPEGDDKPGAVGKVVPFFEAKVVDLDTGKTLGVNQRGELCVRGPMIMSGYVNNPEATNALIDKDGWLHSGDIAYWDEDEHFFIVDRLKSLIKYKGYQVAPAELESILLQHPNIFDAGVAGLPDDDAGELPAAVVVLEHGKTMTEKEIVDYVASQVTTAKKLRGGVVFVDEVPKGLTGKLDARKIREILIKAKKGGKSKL

[13] = tested on: BJ; assay: cells; format: functional, cell-based; settings: Homo sapiens
[14] = HIV-1 AD8 envelope cell-cell fusion blockers – cherry-pick, dose response (AID 652062); format: functional, cell-based;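 further: luciferase signal from cell-cell fusion driven by HIV-1 clade B AD8 Env; potency is for inhibitors of fusion seen as a drop in luminescence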
[15] = non-specific 3'UTR reporter inhibition in Clone20-Shn3RL – cell-based, Renilla luciferase, cherry-picked, counter-screen for Shn3 inhibitor project, dose response (AID 624133); format: functional
[16] = Shn3 3'UTR reporter signal decrease – cell-based, Clone20 osteoblasts, firefly luciferase, cherry-pick, set 2, Schnurri-3 inhibitor project, dose response (AID 720490); format: functional;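 further: actives lower the luminescence signal as inhibitors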
[17] = Luminescence-based counterscreen assay for KLF5 inhibitors: dose response cell-based high throughput screening assay to identify cytotoxic compounds using the IEC-6 intestinal epithelial cell line. [Related pubchem assays: 1700 (Primary screen.), 1834 (Confirmation screen.), 1858 (Summary AID.), 1905 (Counterscreen.)]; format: functional
[18] = tested on: BJ; assay: growth inhibition of engineered Ras-driven BJ cells – cell-based, alamar blue fluorescence, cherrypicked samples, dose response (AID 2631); format: functional; settings: Homo sapiens;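 further: confirmatory dose-response assay in RAS-dependent BJ fibroblasts engineered with TERT, LT and ST, with cytotoxicity read by fluorescence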
[19] = tested on: Jurkat; assay: blockers of NF-kB activation in T cells – Jurkat, luciferase reporter, luminescence, B- and T-cell, dose response (AID 489004); format: functional, cell-based; settings: Homo sapiens;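 further: NF-kB luciferase reporter Jurkat cells stimulated with PMA plus ionomycin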
[20] = target: SUMO E1/E2 (Homo sapiens, UniProt P63279+Q9UBE0+Q9UBT2); assay: SAR analysis of SUMOylation using HTRF in an in-Vitro dose response assay. [Related pubchem assays (depositor defined):AID2006, AID2011, AID2018, AID2069, AID2658]; format: functional
SUMO E1/E2, sequence (Q9UBE0 whole entry): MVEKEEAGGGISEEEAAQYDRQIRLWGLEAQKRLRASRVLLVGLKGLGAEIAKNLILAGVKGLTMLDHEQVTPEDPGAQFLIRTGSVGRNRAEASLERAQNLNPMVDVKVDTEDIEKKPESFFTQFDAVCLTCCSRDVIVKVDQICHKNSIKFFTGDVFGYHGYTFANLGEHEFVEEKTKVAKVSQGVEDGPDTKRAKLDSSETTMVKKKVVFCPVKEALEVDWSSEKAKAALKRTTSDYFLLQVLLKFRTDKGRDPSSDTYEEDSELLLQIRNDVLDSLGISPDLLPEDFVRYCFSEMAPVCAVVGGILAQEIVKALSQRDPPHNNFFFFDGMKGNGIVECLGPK
SUMO E1/E2, sequence (Q9UBT2 whole entry): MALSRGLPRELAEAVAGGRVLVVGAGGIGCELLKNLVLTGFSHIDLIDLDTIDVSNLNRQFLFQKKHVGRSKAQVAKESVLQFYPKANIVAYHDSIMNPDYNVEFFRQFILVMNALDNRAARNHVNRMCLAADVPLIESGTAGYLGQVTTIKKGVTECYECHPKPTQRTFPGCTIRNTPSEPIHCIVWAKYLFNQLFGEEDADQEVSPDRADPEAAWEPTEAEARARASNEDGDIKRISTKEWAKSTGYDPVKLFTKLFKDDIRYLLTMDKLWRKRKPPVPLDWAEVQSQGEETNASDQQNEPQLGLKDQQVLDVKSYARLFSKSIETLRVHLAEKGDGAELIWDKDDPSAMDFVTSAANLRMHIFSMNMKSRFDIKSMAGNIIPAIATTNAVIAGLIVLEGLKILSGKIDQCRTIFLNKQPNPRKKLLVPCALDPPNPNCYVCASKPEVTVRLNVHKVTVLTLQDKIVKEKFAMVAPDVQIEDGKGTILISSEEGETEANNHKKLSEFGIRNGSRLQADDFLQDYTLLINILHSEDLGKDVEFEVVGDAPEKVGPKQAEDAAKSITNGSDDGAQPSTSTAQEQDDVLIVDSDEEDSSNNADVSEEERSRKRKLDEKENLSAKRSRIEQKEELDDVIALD
SUMO E1/E2, sequence (P63279 whole entry): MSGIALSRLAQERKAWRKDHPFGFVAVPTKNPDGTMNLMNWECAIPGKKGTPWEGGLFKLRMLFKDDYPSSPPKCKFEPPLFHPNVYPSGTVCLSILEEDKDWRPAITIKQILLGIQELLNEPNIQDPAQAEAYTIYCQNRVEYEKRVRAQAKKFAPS

[21] = target: T1, Ubiquitin-conjugating enzyme E2 N (Homo sapiens, UniProt P61088); format: functional
T1 sequence (P61088 whole entry): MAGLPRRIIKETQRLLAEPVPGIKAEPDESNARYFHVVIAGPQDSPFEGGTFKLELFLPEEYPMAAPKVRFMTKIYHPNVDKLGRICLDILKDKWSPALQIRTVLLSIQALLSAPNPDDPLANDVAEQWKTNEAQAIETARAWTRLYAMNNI

[22] = target: T2, Bcl-2-related protein A1 (Mus musculus, UniProt Q07440); format: functional;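 further: confirmatory dose–response counterscreen on Bfl-1, used to check hits from a UBC13 polyubiquitin inhibitor campaign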
T2 sequence (Q07440 whole entry): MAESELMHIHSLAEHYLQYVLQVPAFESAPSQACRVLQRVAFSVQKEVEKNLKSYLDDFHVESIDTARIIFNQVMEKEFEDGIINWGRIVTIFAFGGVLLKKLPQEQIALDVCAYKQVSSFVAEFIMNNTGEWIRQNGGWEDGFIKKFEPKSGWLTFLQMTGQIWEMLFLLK

[23] = target: T1, Ubiquitin-conjugating enzyme E2 N; format: functional; remark: listed apart in the source
[24] = target: T3, Type-1 angiotensin II receptor (Homo sapiens, UniProt P30556); assay: agonist activity at AGTR1 – cell-based, uHTS hits, selectivity assay for APJ receptor agonist project, dose response (AID 488865); format: functional;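 further: beta-arrestin recruitment to AT1 measured by enzyme fragment complementation luminescence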
T3 sequence (P30556 whole entry): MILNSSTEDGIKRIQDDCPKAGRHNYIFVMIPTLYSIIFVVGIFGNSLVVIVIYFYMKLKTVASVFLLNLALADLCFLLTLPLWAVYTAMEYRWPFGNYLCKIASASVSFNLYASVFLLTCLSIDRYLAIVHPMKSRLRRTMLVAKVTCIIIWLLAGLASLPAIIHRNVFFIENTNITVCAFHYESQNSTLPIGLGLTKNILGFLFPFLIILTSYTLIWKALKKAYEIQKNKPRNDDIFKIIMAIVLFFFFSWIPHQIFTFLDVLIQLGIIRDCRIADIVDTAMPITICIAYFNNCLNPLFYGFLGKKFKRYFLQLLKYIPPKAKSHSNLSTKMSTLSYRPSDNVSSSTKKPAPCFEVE

[25] = target: T4, DNA repair protein RAD52 homolog (Homo sapiens, UniProt P43351); format: functional, biochemical
T4 sequence (P43351 whole entry): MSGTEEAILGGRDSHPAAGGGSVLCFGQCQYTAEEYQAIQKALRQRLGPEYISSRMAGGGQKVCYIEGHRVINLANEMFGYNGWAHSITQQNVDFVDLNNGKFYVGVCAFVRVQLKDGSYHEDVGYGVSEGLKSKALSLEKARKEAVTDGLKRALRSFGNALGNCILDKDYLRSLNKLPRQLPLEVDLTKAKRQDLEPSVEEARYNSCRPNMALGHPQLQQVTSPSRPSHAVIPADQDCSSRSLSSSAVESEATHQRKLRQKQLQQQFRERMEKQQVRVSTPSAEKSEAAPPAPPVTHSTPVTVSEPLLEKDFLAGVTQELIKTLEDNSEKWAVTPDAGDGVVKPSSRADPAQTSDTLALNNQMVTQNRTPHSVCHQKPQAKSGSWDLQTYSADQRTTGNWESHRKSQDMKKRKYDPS

[26] = target: T5, E3 ubiquitin-protein ligase XIAP (Homo sapiens, UniProt P98170); assay: Counter Screen using XIAP-Bir3 for Chemical Antagonists of Bir1/2 domains of IAP-family anti-apoptotic proteins. [Related pubchem assays (depositor defined):AID1018, AID1449, AID1514, AID1638, AID1749, AID1750, AID488957, AID488963]
T5 sequence (P98170 whole entry): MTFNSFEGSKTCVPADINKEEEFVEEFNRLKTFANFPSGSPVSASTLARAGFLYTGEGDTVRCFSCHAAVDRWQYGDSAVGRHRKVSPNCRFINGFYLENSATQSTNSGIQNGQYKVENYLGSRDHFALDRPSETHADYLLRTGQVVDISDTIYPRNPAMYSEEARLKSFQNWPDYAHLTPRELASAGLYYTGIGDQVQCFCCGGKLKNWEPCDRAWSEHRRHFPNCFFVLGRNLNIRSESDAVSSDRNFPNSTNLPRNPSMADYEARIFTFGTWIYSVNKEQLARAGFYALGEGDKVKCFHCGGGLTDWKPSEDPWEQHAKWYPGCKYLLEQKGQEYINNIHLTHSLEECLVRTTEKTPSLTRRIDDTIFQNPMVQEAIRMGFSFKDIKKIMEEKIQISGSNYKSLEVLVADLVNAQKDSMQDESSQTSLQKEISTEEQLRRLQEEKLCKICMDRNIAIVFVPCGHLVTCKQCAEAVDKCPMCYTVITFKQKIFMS

[27] = target: T5, E3 ubiquitin-protein ligase XIAP; assay: small molecules displacing peptide from XIAP – biochemical, IAP family, fluorescence polarization (AID 1018); format: functional

With `COc1ccc(C(=O)Nc2nc3ccccc3s2)c(OC)c1` the AC50 [1] was 757 nM (active), the EC50 [2] was 1.54 µM (active) and the AC50 [3] was 6.04 µM (active). The AC50 [4] was 14.2 µM (active), the AC50 [5] was < 260 nM (active) and the EC50 [6] was 7.2 µM (active). The AC50 [7] was 523 nM (active), the CC50 [8] was 29.7 µM (active) and the IC50 [9] was > 80 µM (inactive). The EC50 [10] was 17.1 µM (active), the AC50 [11] was 33.5 µM (active) and the EC50 [12] was 241 nM (active). For the same molecule, the EC50 [13] was 5.76 µM (active), the AC50 [14] was 664 nM (active) and the AC50 [15] was 43.8 µM (active). For the same molecule, the AC50 [16] was 450 nM (active), the IC50 [17] was 7.69 µM (active) and the EC50 [18] was > 133 µM (inactive). The IC50 [19] was < 160 nM (active).
With `COc1ccc(CNC(=O)COC(=O)c2cc(-c3cccs3)nc3ccccc23)cc1` the IC50 [20] was 43.3 µM (active).
For `CCOc1cccc2sc(N(CCCN(C)C)C(=O)c3ccc(S(=O)(=O)N(C)Cc4ccccc4)cc3)nc12`, the IC50 [21] was 8.54 µM (active), the IC50 [22] was > 20 µM (inactive) and the IC50 [23] was 8.12 µM (active). For the same molecule, the EC50 [24] was > 100 µM (inactive).
With `CCN(CC)CCNC(=O)c1ccc(NC(=O)c2cc(-c3ccncc3)nc3ccccc23)cc1` the IC50 [21] was 17 µM (active), the IC50 [22] was > 20 µM (inactive) and the AC50 [25] was 20.4 µM (active). The IC50 [23] was > 20 µM (inactive).
With `Cc1ccc2c(c1)C(c1ccccc1)N(C(=O)c1ccc(Br)o1)CC(=O)N2` (stereo not given) the IC50 [26] was > 100 µM (inactive) and the IC50 [27] was > 100 µM (not active).

Reference: ChEMBL document CHEMBL1201862, “PubChem BioAssay data set” (2004)
